The values below come from patent publication US8697419B2, “Compositions and methods for culturing spirochetes” (Advanced Laboratory Services, Inc., priority 2011, dated 2014).

SMILES strings stand for the structures.

Holding throughout (assay type): cell-based
In experiment [1] the test system is Borrelia burgdorferi. Briefly: Effect of antibiotic concentration on spirochete growth in BSK-H medium, dark-field microscopy. The protocol:
(§1) The cells were cultured for 6 days with different concentration of rabbit serum, DTT and antibiotics, as depicted, and cellular growth was evaluated by direct cell counting of motile spirochetes using dark field microscopy. Each set of data represents three independent experiments (mean±SD). Statistical significance was determined using two-sample paired t-test. The data *p-values<0.05 indicates statistical significance as related to control.
To determine the effect of antibiotic concentration on spirochete growth, Borrelia burgdorferi were cultured in BSK-H medium containing 12% rabbit serum, 100 μg/ml DTT and one of the following antibiotics: 0.5 μg/ml rifampicin, 50 μg/ml rifampicin, a 5 μg/ml rifampicin disc (resulting in final concentration of 0.4 μg/ml), 50 μg/ml phosphomycin, 100 μg/ml phosphomycin, or the combination of 50 μg/ml rifampicin and 50 μg/ml phosphomycin. The spirochetes were incubated in a CO2 incubator at 34° C. with 5% CO2 and 100% humidity for 6 days, at which time spirochete growth was evaluated by dark-field microscopy. […] See, FIG. 2C.

Experiment [2] concerns Borrelia burgdorferi. Kind of experiment: Effect of DTT concentration on spirochete growth in BSK-H medium, dark-field microscopy. How it is done:
as §1
The effect of the addition of a reducing agent, such as DTT, to the culture media was also evaluated. To determine the effect of DTT concentration on spirochete growth, Borrelia burgdorferi were cultured in BSK-H medium with 6%, 12%, and 20% rabbit serum and either 0.145 μg/ml DTT or 100 μg/ml DTT. The spirochetes were incubated in a CO2 incubator at 34° C. with 5% CO2 and 100% humidity for 6 days, at which time spirochete growth was evaluated by dark-field microscopy. […] See, FIG. 2B. […] See, FIG. 2B, p=0.0002.

Experiment [3] relates to Borrelia burgdorferi. Briefly: Effect of magnesium concentration on spirochete growth in BSK-H medium. To be noted: 7.5×10^−2 M vs 7.5×10^−3 M MgCl2, 6% rabbit serum, 6 days, data not shown. The protocol: To determine the effect of magnesium concentration on spirochete growth, Borrelia burgdorferi were cultured in BSK-H medium with 6% rabbit serum and either 7.5×10^−2 M MgCl2, or 7.5×10^−3 M MgCl2. The spirochetes were incubated in a CO2 incubator at 32° C. with 5% CO2 and 100% humidity for 6 days, at which time spirochete growth was evaluated by dark-field microscopy.

Regarding `C[C@@H]1O[C@@H]1P(=O)(O)O` [phosphomycin], the spirochete yield entry in experiment [1] (50 or 100 μg/ml phosphomycin, BSK-H, 12% rabbit serum, 100 μg/ml DTT, 6 days, 34° C.) is reported as “significantly decreased spirochete yield”. The spirochete yields entry in experiment [1] (lower concentrations of phosphomycin (e.g., 10 and 50 μg/ml), data not shown) is listed as “significantly decreased spirochete yields”.
Turning to `O[C@H](CS)[C@H](O)CS` (racemic) [DTT, dithiothreitol], in experiment [2] (BSK-H with 12% rabbit serum, p=0.0002), the “spirochete yield, 100 μg/ml DTT relative to 0.145 μg/ml DTT” value is reported as “twice as many spirochetes”. The spirochete yields result in experiment [2] (DTT (0.145 or 100 μg/ml) included in BSK-H culture medium, 6 days) was “increased spirochete yields”.
With `[Cl-].[Cl-].[Mg+2]` [MgCl2], in experiment [3], the spirochete growth result is listed as “No significant differences in spirochete growth”.
